This passage reports GI50 and TGI results from PubChem BioAssay (NCI).

What all share (assay): NCI anticancer screen, dose series, 48 h
Test [1] deals with ACHN renal.
The test system of test [2] is BT-549 breast.
Test [3] deals with DU-145 prostate.
Test [4] concerns HCT-15 colon.
For test [5], the system named is HOP-62 NSCLC.
For test [6], the system named is M14 melanoma.
Test [7] deals with MDA-MB-435.
In test [8] the test system is OVCAR-3 ovarian.
Test [9] deals with SK-MEL-5 melanoma.
Test [10] relates to SNB-75 CNS.

Molecules are shown by their SMILES.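 Five compound concentrations were applied to cells in 96-well plates for 48 hours; endpoints were derived by simple linear interpolation of the resulting dose-response curve. Here, GI50 denotes the concentration required for 50% inhibition of growth. TGI: total growth inhibition.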 Some results are limits rather than exact numbers.

Turning to `Nc1nc(Nc2ccccc2SSc2ccccc2Nc2nc(N)nc(C(Cl)(Cl)Cl)n2)nc(C(Cl)(Cl)Cl)n1`, the GI50 was 1.7 µM in test [1]; 3.34 µM in test [2]; 9.57 µM in test [3]; 3.89 µM in [4]; 2.07 µM in [5]; 9.13 µM in [6]. In addition, the GI50 in test [7] was 6.39 µM; in [8], 10.4 µM; in test [9], 5.97 µM; in [10], 2.94 µM. Further, the TGI is 3.2 µM in test [1]; 35.7 µM in [2]; 24.4 µM in test [3]; 15 µM in test [4]; 6.33 µM in [5]; 22.9 µM in test [6]. The TGI in test [7] amounted to 24.9 µM; in [8], 33.8 µM; in test [9], 32.2 µM; in [10], 22.3 µM.

Take `CC(=O)NCc1cccc(C#Cc2cncnc2Nc2ccc(OCc3cccc(F)c3)c(Cl)c2)c1`: the GI50 in test [1] is 5.84 µM; in test [2], 13.5 µM; in test [3] it was 10.1 µM; in [4] it was 8.31 µM; in test [5], greater than 25 µM; in [6] it was 14.1 µM. In addition, the GI50 in test [7] was 8.41 µM; in test [8] it was 11.6 µM; in test [9], 9.44 µM; in [10], greater than 21 µM. Moreover, the TGI in [1], in test [2], in test [3], in test [4], in [5] and in test [6] was greater than 25 µM throughout. For the same molecule, the TGI in test [7], in test [8], in [9] and in test [10] was greater than 25 µM in each case.

With `c1ccc(CCc2cccnc2)nc1`, the TGI in [1], in test [2], in test [4], in test [5], in test [6] and in test [7] was greater than 100 µM throughout. The TGI in [8], in test [9] and in [10] was greater than 100 µM each time.

For the molecule `COc1cc2c(cc1OCCCCN1CCN(C(=S)SCCC(C#N)(c3ccccc3)c3ccccc3)CC1)N=C[C@@H]1CCCN1C2=O`, the GI50 in [2] was 1.42 µM; in test [4] it was 1.41 µM; in test [5], 0.719 µM; in test [7], 1.04 µM; in [8], 1.2 µM; in test [9] it was 1.11 µM. The GI50 in [10] was 1.64 µM. The TGI in test [2] was determined as 8.84 µM; in test [4] it was 3.9 µM; in [5] it was 2.4 µM; in test [7], 2.81 µM; in [8], 2.93 µM; in test [9] it was 2.82 µM. The same molecule displayed a TGI in test [10] of 3.68 µM.

Take `COc1ccc(-c2nc(/C=C3\SC(=NCc4ccccc4)NC3=O)c3ccccn23)cc1`: the GI50 in test [1] is 1.34 µM; in test [2], 1.38 µM; in test [3], 0.685 µM; in [4] it was 1.47 µM; in [5], 1.54 µM; in [6], 1.12 µM. In addition, the results for the GI50 in test [8], in [9] and in test [10] were 1.04 µM, 1.51 µM and 1.51 µM, respectively. Besides, the TGI amounted to 1.94 µM in test [1]; 3.1 µM in [2]; 1.81 µM in test [3]; 2.18 µM in test [4]; 3 µM in test [5]; 2.42 µM in [6]. The TGI in test [8] was 2.46 µM; in test [9], 3.19 µM; in test [10], 3.2 µM.

Take `COc1ccc(NC(=O)C2CCC(CNS(=O)(=O)c3ccccc3)CC2)cc1OC` (centres undefined): the GI50 is greater than 100 µM in test [1]; greater than 100 µM in [2]; greater than 100 µM in test [3]; greater than 100 µM in test [4]; 26.8 µM in [5]; greater than 100 µM in test [6]. The GI50 in [7], in test [8] and in [9] was greater than 100 µM throughout. The TGI in test [1] is greater than 100 µM; in [2], greater than 100 µM; in [3] it was greater than 100 µM; in test [4] it was greater than 100 µM; in [5], 86.8 µM; in test [6] it was greater than 100 µM. Also, the TGI in [7], in test [8] and in test [9] was greater than 100 µM each time.

As to `COC1C(O)C(CO)OC(OC2C(O)COC(OC3C(C)OC(OC4C(O[C@H]5CC[C@@]6(C)C(CC=C7[C@H]6CCC68C(=O)O[C@@](C)(CCCC(C)C)[C@H]6[C@@H](OC(C)=O)C[C@@]78C)C5(C)C)OCC(OS(=O)(=O)O)C4O)C(OC4OCC(O)C(O)C4O)C3O)C2O)C1O` (some centres undefined), the GI50 in test [1] was 0.149 µM; in test [2], 0.226 µM; in [3], 0.209 µM; in test [4], 0.177 µM; in test [6], 0.258 µM; in test [7], 0.196 µM. Further, the GI50 is 0.181 µM in test [8], 0.473 µM in test [9] and 0.214 µM in test [10]. The TGI in test [1] was determined as 0.298 µM; in test [2] it was 0.523 µM; in test [3], 0.656 µM; in test [4] it was 0.454 µM; in test [6] it was 0.894 µM; in test [7], 0.532 µM. Also, the TGI was 1.13 µM in [9] and 0.465 µM in test [10].

In the case of `COc1ncnc(NS(=O)(=O)c2ccc(N=C3C(=O)N(CN4CCN(c5c(F)cc6c(=O)c(C(=O)O)cn(C7CC7)c6c5OC)CC4C)c4ccc(Br)cc43)cc2)c1OC` (centres undefined), the GI50 was 22.5 µM in [1]; 6.57 µM in test [2]; 10.9 µM in test [3]; 4.73 µM in test [4]; 15.3 µM in test [6]; 7.07 µM in test [7]. The GI50 was 7.52 µM in test [8], 5.52 µM in test [9] and greater than 50 µM in [10]. The TGI in test [1] is greater than 50 µM; in [2] it was 19.9 µM; in test [3], 37.3 µM; in [4], greater than 50 µM; in [6] it was greater than 50 µM; in test [7], 33.2 µM. Also, the values for the TGI in test [8], in test [9] and in test [10] were 40.7 µM, 14.5 µM and greater than 50 µM, respectively.
